US20250163104A1, “MACROCYCLIC IMMUNOMODULATORS” (priority 2021, published 2025)
Where a SMILES comes first, the peptide text is derived from it. Bridges are numbered along the chain shown (N, C = ends). [ ]: non-standard residue; d: D form. Bip(4'-NHAc) = CC(=O)Nc1ccc(-c2ccc(C[C@H](N)C(=O)O)cc2)cc1; Ala(4-isoquinolinyl) = N[C@@H](Cc1cncc2ccccc12)C(=O)O; Phe(3,4,5-F3) = N[C@@H](Cc1cc(F)c(F)c(F)c1)C(=O)O; Phe(3,4-Cl2) = N[C@@H](Cc1ccc(Cl)c(Cl)c1)C(=O)O; Phe(3,4-F2) = N[C@@H](Cc1ccc(F)c(F)c1)C(=O)O; Phe(3,5-F2) = N[C@@H](Cc1cc(F)cc(F)c1)C(=O)O; Bip = N[C@@H](Cc1ccc(-c2ccccc2)cc1)C(=O)O; hPhe = N[C@@H](CCc1ccccc1)C(=O)O; Aad = N[C@@H](CCCC(=O)O)C(=O)O; Cha = N[C@@H](CC1CCCCC1)C(=O)O; Cit = NC(=O)NCCC[C@H](N)C(=O)O; hSer = N[C@@H](CCO)C(=O)O; Orn = NCCC[C@H](N)C(=O)O; Dab = NCC[C@H](N)C(=O)O; Dap = NC[C@H](N)C(=O)O

target: T1, human PD-1 / PD-L1-Ig binding on Jurkat cell line over-expressing human PD-1 (Jurkat-PD-1) (Homo sapiens, UniProt Q15116); experiment: Jurkat-PD-1 Cell Binding High-Content Screening Assay (CBA); format: cell-based; conditions: Jurkat-PD-1 cells, PE-labeled PD-L1-Ig 20 nM final; read-out: Jurkat HPD1_PDL1 IC50
T1 construct: expressed in transfected cells; host or cells: Jurkat
T1 sequence (Q15116 25-288): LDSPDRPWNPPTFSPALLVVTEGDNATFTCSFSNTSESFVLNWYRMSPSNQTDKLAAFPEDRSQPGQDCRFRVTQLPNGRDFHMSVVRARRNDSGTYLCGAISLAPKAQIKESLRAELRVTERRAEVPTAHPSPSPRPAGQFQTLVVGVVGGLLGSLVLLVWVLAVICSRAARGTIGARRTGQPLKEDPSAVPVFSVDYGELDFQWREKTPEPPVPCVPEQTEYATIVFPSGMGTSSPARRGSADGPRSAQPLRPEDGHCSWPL
Summary of the method: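 Compounds were preincubated with Jurkat-hPD-1 cells in DMEM plus 10% fetal calf serum for 2 h at 37° C. Phycoerythrin-labeled PD-L1-Ig (20 nM final) was then added for 1 hour. Cells were fixed in 4% paraformaldehyde with Hoechst 33342, and bound fluorescence was quantified by high-content imaging.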

SMILES | IC50
CC(C)C[C@H]1NC(=O)[C@H](CCCN)NC(=O)[C@H](CCCNC(N)=O)NC(=O)[C@H](Cc2ccc(-c3ccccc3)cc2)NC(=O)[C@H](C(C)C)NC(=O)[C@H](Cc2c[nH]c3ccccc23)NC(=O)[C@H](CC(=O)O)NC(=O)[C@H](Cc2cncc3ccccc23)NC(=O)[C@H](CN)NC(=O)CSC[C@@H](C(=O)N[C@@H](C)C(N)=O)NC(=O)[C@H]([C@@H](C)O)NC(=O)[C@H](C(C)C)NC(=O)[C@H](CC2CCCCC2)NC(=O)[C@H](CCN)NC1=O [Compound 2118] ({CH2CO}-[Dap][Ala(4-isoquinolinyl)]DWV[Bip][Cit][Orn][dL][Dab][Cha]VTCA-NH2; thioether N-14) | 62.6 nM
CC(C)C[C@H]1NC(=O)[C@H](CCCN)NC(=O)[C@H](CCCNC(N)=O)NC(=O)[C@H](Cc2ccc(-c3ccccc3)cc2)NC(=O)[C@H](C(C)C)NC(=O)[C@H](Cc2c[nH]c3ccccc23)NC(=O)[C@H](CC(=O)O)NC(=O)[C@H](CC(=O)O)NC(=O)[C@H](CN)NC(=O)CSC[C@@H](C(=O)N[C@@H](C)C(N)=O)NC(=O)[C@H]([C@@H](C)O)NC(=O)[C@H](C(C)C)NC(=O)[C@H](CC2CCCCC2)NC(=O)[C@H](CCN)NC1=O [Compound 2120] ({CH2CO}-[Dap]DDWV[Bip][Cit][Orn][dL][Dab][Cha]VTCA-NH2; thioether N-14) | 964 nM
CC(=O)Nc1ccc(-c2ccc(C[C@@H]3NC(=O)[C@H](CN)NC(=O)CSC[C@@H](C(=O)N[C@@H](C)C(N)=O)NC(=O)[C@H]([C@@H](C)O)NC(=O)[C@H](C(C)C)NC(=O)[C@H](CC4CCCCC4)NC(=O)[C@H](CCN)NC(=O)[C@@H](CC(C)C)NC(=O)[C@H](CCCN)NC(=O)[C@H](CCCNC(N)=O)NC(=O)[C@H](Cc4ccc(-c5ccccc5)cc4)NC(=O)[C@H](C(C)C)NC(=O)[C@H](Cc4c[nH]c5ccccc45)NC(=O)[C@H](CC(=O)O)NC3=O)cc2)cc1 [Compound 2124] ({CH2CO}-[Dap][Bip(4'-NHAc)]DWV[Bip][Cit][Orn][dL][Dab][Cha]VTCA-NH2; thioether N-14) | 22.6 nM
CC(C)C[C@H]1NC(=O)[C@H](CCCN)NC(=O)[C@H](CCCNC(N)=O)NC(=O)[C@H](Cc2ccc(-c3ccccc3)cc2)NC(=O)[C@H](C(C)C)NC(=O)[C@H](Cc2c[nH]c3ccccc23)NC(=O)[C@H](CC(=O)O)NC(=O)[C@H](CCCC(=O)O)NC(=O)[C@H](CN)NC(=O)CSC[C@@H](C(=O)N[C@@H](C)C(N)=O)NC(=O)[C@H]([C@@H](C)O)NC(=O)[C@H](C(C)C)NC(=O)[C@H](CC2CCCCC2)NC(=O)[C@H](CCN)NC1=O [Compound 2125] ({CH2CO}-[Dap][Aad]DWV[Bip][Cit][Orn][dL][Dab][Cha]VTCA-NH2; thioether N-14) | 57.1 nM
CC(C)C[C@H]1NC(=O)[C@H](CCCN)NC(=O)[C@H](CCCNC(N)=O)NC(=O)[C@H](Cc2ccc(-c3ccccc3)cc2)NC(=O)[C@H](C(C)C)NC(=O)[C@H](Cc2c[nH]c3ccccc23)NC(=O)[C@H](CC(=O)O)NC(=O)[C@H](CCc2ccccc2)NC(=O)[C@H](CN)NC(=O)CSC[C@@H](C(=O)N[C@@H](C)C(N)=O)NC(=O)[C@H]([C@@H](C)O)NC(=O)[C@H](C(C)C)NC(=O)[C@H](CC2CCCCC2)NC(=O)[C@H](CCN)NC1=O [Compound 2126] ({CH2CO}-[Dap][hPhe]DWV[Bip][Cit][Orn][dL][Dab][Cha]VTCA-NH2; thioether N-14) | 7.9 nM
CC(C)C[C@H]1NC(=O)[C@H](CCCN)NC(=O)[C@H](CCCNC(N)=O)NC(=O)[C@H](Cc2ccc(-c3ccccc3)cc2)NC(=O)[C@H](C(C)C)NC(=O)[C@H](Cc2c[nH]c3ccccc23)NC(=O)[C@H](CC(=O)O)NC(=O)[C@H](Cc2cc(F)c(F)c(F)c2)NC(=O)[C@H](CN)NC(=O)CSC[C@@H](C(=O)N[C@@H](C)C(N)=O)NC(=O)[C@H]([C@@H](C)O)NC(=O)[C@H](C(C)C)NC(=O)[C@H](CC2CCCCC2)NC(=O)[C@H](CCN)NC1=O [Compound 2127] ({CH2CO}-[Dap][Phe(3,4,5-F3)]DWV[Bip][Cit][Orn][dL][Dab][Cha]VTCA-NH2; thioether N-14) | 47.4 nM
CC(C)C[C@H]1NC(=O)[C@H](CCCN)NC(=O)[C@H](CCCNC(N)=O)NC(=O)[C@H](Cc2ccc(-c3ccccc3)cc2)NC(=O)[C@H](C(C)C)NC(=O)[C@H](Cc2c[nH]c3ccccc23)NC(=O)[C@H](CC(=O)O)NC(=O)[C@H](Cc2cc(F)cc(F)c2)NC(=O)[C@H](CN)NC(=O)CSC[C@@H](C(=O)N[C@@H](C)C(N)=O)NC(=O)[C@H]([C@@H](C)O)NC(=O)[C@H](C(C)C)NC(=O)[C@H](CC2CCCCC2)NC(=O)[C@H](CCN)NC1=O [Compound 2131] ({CH2CO}-[Dap][Phe(3,5-F2)]DWV[Bip][Cit][Orn][dL][Dab][Cha]VTCA-NH2; thioether N-14) | 37.2 nM

Continued, values first:

IC50 | SMILES
18.7 nM | CC(C)C[C@H]1NC(=O)[C@H](CCCN)NC(=O)[C@H](CCCNC(N)=O)NC(=O)[C@H](Cc2ccc(-c3ccccc3)cc2)NC(=O)[C@H](C(C)C)NC(=O)[C@H](Cc2c[nH]c3ccccc23)NC(=O)[C@H](CC(=O)O)NC(=O)[C@H](Cc2ccc3ccncc3c2)NC(=O)[C@H](CN)NC(=O)CSC[C@@H](C(=O)N[C@@H](C)C(N)=O)NC(=O)[C@H]([C@@H](C)O)NC(=O)[C@H](C(C)C)NC(=O)[C@H](CC2CCCCC2)NC(=O)[C@H](CCN)NC1=O [Compound 2117]
232 nM | CC(C)C[C@H]1NC(=O)[C@H](CCCN)NC(=O)[C@H](CCCNC(N)=O)NC(=O)[C@H](Cc2ccc(-c3ccccc3)cc2)NC(=O)[C@H](C(C)C)NC(=O)[C@H](Cc2c[nH]c3ccccc23)NC(=O)[C@H](CC(=O)O)NC(=O)[C@H](CCC(=O)O)NC(=O)[C@H](CN)NC(=O)CSC[C@@H](C(=O)N[C@@H](C)C(N)=O)NC(=O)[C@H]([C@@H](C)O)NC(=O)[C@H](C(C)C)NC(=O)[C@H](CC2CCCCC2)NC(=O)[C@H](CCN)NC1=O [Compound 2121] ({CH2CO}-[Dap]EDWV[Bip][Cit][Orn][dL][Dab][Cha]VTCA-NH2; thioether N-14)
31.3 nM | CC(C)C[C@H]1NC(=O)[C@H](CCCN)NC(=O)[C@H](CCCNC(N)=O)NC(=O)[C@H](Cc2ccc(-c3ccccc3)cc2)NC(=O)[C@H](C(C)C)NC(=O)[C@H](Cc2c[nH]c3ccccc23)NC(=O)[C@H](CC(=O)O)NC(=O)[C@H](Cc2c[nH]c3ccccc23)NC(=O)[C@H](CN)NC(=O)CSC[C@@H](C(=O)N[C@@H](C)C(N)=O)NC(=O)[C@H]([C@@H](C)O)NC(=O)[C@H](C(C)C)NC(=O)[C@H](CC2CCCCC2)NC(=O)[C@H](CCN)NC1=O [Compound 2122] ({CH2CO}-[Dap]WDWV[Bip][Cit][Orn][dL][Dab][Cha]VTCA-NH2; thioether N-14)
7.5 nM | CC(C)C[C@H]1NC(=O)[C@H](CCCN)NC(=O)[C@H](CCCNC(N)=O)NC(=O)[C@H](Cc2ccc(-c3ccccc3)cc2)NC(=O)[C@H](C(C)C)NC(=O)[C@H](Cc2c[nH]c3ccccc23)NC(=O)[C@H](CC(=O)O)NC(=O)[C@H](Cc2cccs2)NC(=O)[C@H](CN)NC(=O)CSC[C@@H](C(=O)N[C@@H](C)C(N)=O)NC(=O)[C@H]([C@@H](C)O)NC(=O)[C@H](C(C)C)NC(=O)[C@H](CC2CCCCC2)NC(=O)[C@H](CCN)NC1=O [Compound 2128]
48.2 nM | CC(C)C[C@H]1NC(=O)[C@H](CCCN)NC(=O)[C@H](CCCNC(N)=O)NC(=O)[C@H](Cc2ccc(-c3ccccc3)cc2)NC(=O)[C@H](C(C)C)NC(=O)[C@H](Cc2c[nH]c3ccccc23)NC(=O)[C@H](CC(=O)O)NC(=O)[C@H](Cc2ccc(F)c(F)c2)NC(=O)[C@H](CN)NC(=O)CSC[C@@H](C(=O)N[C@@H](C)C(N)=O)NC(=O)[C@H]([C@@H](C)O)NC(=O)[C@H](C(C)C)NC(=O)[C@H](CC2CCCCC2)NC(=O)[C@H](CCN)NC1=O [Compound 2129] ({CH2CO}-[Dap][Phe(3,4-F2)]DWV[Bip][Cit][Orn][dL][Dab][Cha]VTCA-NH2; thioether N-14)
96.6 nM | CC(C)C[C@H]1NC(=O)[C@H](CCCN)NC(=O)[C@H](CCCNC(N)=O)NC(=O)[C@H](Cc2ccc(-c3ccccc3)cc2)NC(=O)[C@H](C(C)C)NC(=O)[C@H](Cc2c[nH]c3ccccc23)NC(=O)[C@H](CC(=O)O)NC(=O)[C@H](Cc2ccc(Cl)c(Cl)c2)NC(=O)[C@H](CN)NC(=O)CSC[C@@H](C(=O)N[C@@H](C)C(N)=O)NC(=O)[C@H]([C@@H](C)O)NC(=O)[C@H](C(C)C)NC(=O)[C@H](CC2CCCCC2)NC(=O)[C@H](CCN)NC1=O [Compound 2130] ({CH2CO}-[Dap][Phe(3,4-Cl2)]DWV[Bip][Cit][Orn][dL][Dab][Cha]VTCA-NH2; thioether N-14)
65.2 nM | CC(C)C[C@H]1NC(=O)[C@H](CCCN)NC(=O)[C@H](CCCNC(N)=O)NC(=O)[C@H](Cc2ccc(-c3ccccc3)cc2)NC(=O)[C@H](C(C)C)NC(=O)[C@H](Cc2c[nH]c3ccccc23)NC(=O)[C@H](CC(=O)O)NC(=O)[C@H](Cc2ccc(C(=O)c3ccccc3)cc2)NC(=O)[C@H](CN)NC(=O)CSC[C@@H](C(=O)N[C@@H](C)C(N)=O)NC(=O)[C@H]([C@@H](C)O)NC(=O)[C@H](C(C)C)NC(=O)[C@H](CC2CCCCC2)NC(=O)[C@H](CCN)NC1=O [Compound 2132]
24.6 nM | COCC[C@@H]1NC(=O)[C@H](CN)NC(=O)CSC[C@@H](C(=O)N[C@@H](C)C(N)=O)NC(=O)[C@H]([C@@H](C)O)NC(=O)[C@H](C(C)C)NC(=O)[C@H](CC2CCCCC2)NC(=O)[C@H](CCN)NC(=O)[C@@H](CC(C)C)NC(=O)[C@H](CCCN)NC(=O)[C@H](CCCNC(N)=O)NC(=O)[C@H](Cc2ccc(-c3ccccc3)cc2)NC(=O)[C@H](C(C)C)NC(=O)[C@H](Cc2c[nH]c3ccccc23)NC(=O)[C@H](CC(=O)O)NC1=O [Compound 2133] ({CH2CO}-[Dap][hSer](Me)DWV[Bip][Cit][Orn][dL][Dab][Cha]VTCA-NH2; thioether N-14)
